Assay results reported in patent US7176199B2, “Aryl-substituted alicyclic compound and medical composition comprising the same” (Dainippon Pharmaceutical Co., Ltd., priority 2001, dated 2007).

Legend:
αIIbβ3 integrin = target: T1, αIIbβ3 integrin (Homo sapiens, UniProt P05106+P08514); assay: Assay for the inhibition of αIIbβ3 integrin binding (fibrinogen as ligand, integrin captured from platelet lysate); details: inhibition of specific binding of biotinylated fibrinogen to αIIbβ3 integrin from human platelet lysate
T1 construct: from tissue; host or cells: human platelets (Triton X-100 lysate)
T1 sequence (P08514 32-887 limits assumed): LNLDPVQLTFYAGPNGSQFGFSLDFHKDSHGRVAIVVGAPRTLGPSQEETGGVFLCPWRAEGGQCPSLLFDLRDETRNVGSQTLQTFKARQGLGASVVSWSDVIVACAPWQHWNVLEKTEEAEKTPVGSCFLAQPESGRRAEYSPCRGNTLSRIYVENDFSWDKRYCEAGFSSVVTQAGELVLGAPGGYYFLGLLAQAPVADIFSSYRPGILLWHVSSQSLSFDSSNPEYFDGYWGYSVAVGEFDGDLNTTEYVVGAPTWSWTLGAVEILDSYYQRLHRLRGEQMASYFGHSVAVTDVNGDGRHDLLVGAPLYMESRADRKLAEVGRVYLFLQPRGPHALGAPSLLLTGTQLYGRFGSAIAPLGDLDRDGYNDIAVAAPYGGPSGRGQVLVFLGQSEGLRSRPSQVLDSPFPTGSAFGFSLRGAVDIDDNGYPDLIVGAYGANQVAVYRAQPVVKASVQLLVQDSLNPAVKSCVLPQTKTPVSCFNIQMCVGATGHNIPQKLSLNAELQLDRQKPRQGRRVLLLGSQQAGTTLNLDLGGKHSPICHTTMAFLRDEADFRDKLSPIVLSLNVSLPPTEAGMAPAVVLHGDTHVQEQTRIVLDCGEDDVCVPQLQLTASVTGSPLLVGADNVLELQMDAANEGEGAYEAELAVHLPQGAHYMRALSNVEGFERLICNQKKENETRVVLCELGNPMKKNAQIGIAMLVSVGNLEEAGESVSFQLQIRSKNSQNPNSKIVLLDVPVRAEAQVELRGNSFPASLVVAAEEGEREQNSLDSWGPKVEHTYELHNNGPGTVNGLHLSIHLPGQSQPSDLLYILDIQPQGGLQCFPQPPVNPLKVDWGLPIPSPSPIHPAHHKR
T1 sequence (P08514 891-1039 partner limits assumed): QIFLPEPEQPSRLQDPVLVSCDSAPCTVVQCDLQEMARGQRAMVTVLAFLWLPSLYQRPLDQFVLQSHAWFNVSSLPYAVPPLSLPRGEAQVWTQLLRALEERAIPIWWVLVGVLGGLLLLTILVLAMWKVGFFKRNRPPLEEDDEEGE
T1 sequence (P05106 27-788): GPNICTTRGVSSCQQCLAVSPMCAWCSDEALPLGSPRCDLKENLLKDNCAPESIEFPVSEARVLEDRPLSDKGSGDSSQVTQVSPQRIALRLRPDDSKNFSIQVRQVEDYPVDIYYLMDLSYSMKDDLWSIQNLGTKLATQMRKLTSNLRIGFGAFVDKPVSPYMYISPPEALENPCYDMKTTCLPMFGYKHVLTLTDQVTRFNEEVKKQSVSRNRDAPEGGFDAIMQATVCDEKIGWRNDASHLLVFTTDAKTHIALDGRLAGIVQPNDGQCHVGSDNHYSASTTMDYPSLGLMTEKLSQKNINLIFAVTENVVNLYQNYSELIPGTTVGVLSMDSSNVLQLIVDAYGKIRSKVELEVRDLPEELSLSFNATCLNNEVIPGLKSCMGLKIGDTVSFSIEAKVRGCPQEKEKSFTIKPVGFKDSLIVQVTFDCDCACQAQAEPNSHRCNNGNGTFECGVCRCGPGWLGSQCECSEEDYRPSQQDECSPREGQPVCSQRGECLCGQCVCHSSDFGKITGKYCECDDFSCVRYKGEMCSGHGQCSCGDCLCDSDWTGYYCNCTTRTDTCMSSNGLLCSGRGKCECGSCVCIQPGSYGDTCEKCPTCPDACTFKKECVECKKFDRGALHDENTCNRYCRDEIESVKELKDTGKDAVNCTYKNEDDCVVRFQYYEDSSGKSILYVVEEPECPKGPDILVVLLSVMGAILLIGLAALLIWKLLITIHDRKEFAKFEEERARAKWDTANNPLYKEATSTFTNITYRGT
Method: Experiment 2: Assay for the Inhibition of αIIbβ3 Integrin Binding
This experiment was carried out based on the method described in Thromb. Haemostasis, 75, 339 (1996), Blood, 93, 2559 (1999), using fibrinogen as a ligand. According to the method described in the above literatures, assay for the inhibition of αIIbβ3 integrin binding can be achieved by capturing αIIbβ3 integrin from platelet lysate with the use of an activated antibody against αIIbβ3 integrin.
Human platelets were isolated in a conventional manner. At 25° C., the isolated platelets were adjusted to a concentration of 1.25×10^9/ml with TBS+[50 mM Tris-HCl (pH 7.4), 150 mM NaCl, 2 mM CaCl2], and then ⅛ volume of TBS^+ containing 2 mM leupepsin and 10 mM PMSF was added and stirred gently. Nest, 1/9 volume of TBS+ containing 10% Triton X-100 was added and stirred gently. After standing on ice for 30 minutes, a platelet lysate was prepared from the mixture by discarding the insoluble fraction with centrifugation (10,000 g, 15 minutes).
Anti-mouse IgG goat antibody (Jackson Immunoresearch Laboratories, Inc., USA) was adjusted to a concentration of 5 μg/ml with sodium carbonate buffer (pH 9.6) and added to plates at 50 μl/well. The plate was left at 4° C. overnight for immobilization of the antibody. All subsequent steps were done at 25° C., and the procedure for each well was described hereafter.
The well was washed once with TBS^+, and then 200 μl of TBS^+ containing 5% BSA was added to the well and left for one hour for blocking. The well was washed with a reaction solution (TBS^+ containing 0.1% BSA and 0.05% Triton X-100) 4 times, and then 50 μl of anti-human αIIbβ3 integrin activated monoclonal antibody (TAKARA SHUZO CO., LTD, Japan, PT25-2 strain) adjusted to 5 μg/ml with the reaction solution was added to the well. After one hour reaction, the well was washed 4 times with the reaction solution, and 50 μl of the platelet lysate diluted 1:2 with the reaction solution was added to the well. Following 2 hours reaction, the well was washed 4 times with the reaction solution, and 50 μl of the reaction solution was added to the well. Subsequently, 25 μl of a test compound solution adjusted to each concentration with the reaction solution was added, and then mixed with 25 μl of biotinylated fibrinogen (Calbiochem, Germany) adjusted to 2 μg/ml with the reaction solution. The mixture was reacted for one hour. After washing 4 times with the reaction solution, 100 μl of alkaline phosphatase-labeled streptoavidin (Gibco BRL, USA) diluted 1:500 with the reaction solution was added to the well. Following 30 minutes reaction, the well was washed 4 times with the wash solution. Next, 50 μl of the NaDPH solution (Invitrogen, former company name: Gibco BRL, USA) was added and reacted for 20 minutes, and then 50 μl of an amplification solution containing diaphorase and alcohol dehydrogenase (Invitrogen, former company name: Gibco BRL, USA) was added. Color was developed for 20 minutes and the reaction was stopped by adding 50 μl of 0.5 M sulfuric acid.
(§1) The absorbance at 495 nm was measured with a plate reader to obtain a total binding. To obtain a nonspecific binding, EDTA adjusted to 20 mM with the reaction solution was added instead of the test compound solution. A specific binding was calculated by subtracting the nonspecific binding from the total binding.

αvβ3 integrin = αvβ3 integrin (Homo sapiens, UniProt P05106+P06756); assay: Assay for the inhibition of αvβ3 integrin binding (vitronectin as ligand); parameters: purchased Chemicon International, Inc., USA; details: inhibition of specific binding of biotinylated human vitronectin to immobilized αvβ3 integrin
αvβ3 integrin, sequence (P06756 31-889 limits assumed): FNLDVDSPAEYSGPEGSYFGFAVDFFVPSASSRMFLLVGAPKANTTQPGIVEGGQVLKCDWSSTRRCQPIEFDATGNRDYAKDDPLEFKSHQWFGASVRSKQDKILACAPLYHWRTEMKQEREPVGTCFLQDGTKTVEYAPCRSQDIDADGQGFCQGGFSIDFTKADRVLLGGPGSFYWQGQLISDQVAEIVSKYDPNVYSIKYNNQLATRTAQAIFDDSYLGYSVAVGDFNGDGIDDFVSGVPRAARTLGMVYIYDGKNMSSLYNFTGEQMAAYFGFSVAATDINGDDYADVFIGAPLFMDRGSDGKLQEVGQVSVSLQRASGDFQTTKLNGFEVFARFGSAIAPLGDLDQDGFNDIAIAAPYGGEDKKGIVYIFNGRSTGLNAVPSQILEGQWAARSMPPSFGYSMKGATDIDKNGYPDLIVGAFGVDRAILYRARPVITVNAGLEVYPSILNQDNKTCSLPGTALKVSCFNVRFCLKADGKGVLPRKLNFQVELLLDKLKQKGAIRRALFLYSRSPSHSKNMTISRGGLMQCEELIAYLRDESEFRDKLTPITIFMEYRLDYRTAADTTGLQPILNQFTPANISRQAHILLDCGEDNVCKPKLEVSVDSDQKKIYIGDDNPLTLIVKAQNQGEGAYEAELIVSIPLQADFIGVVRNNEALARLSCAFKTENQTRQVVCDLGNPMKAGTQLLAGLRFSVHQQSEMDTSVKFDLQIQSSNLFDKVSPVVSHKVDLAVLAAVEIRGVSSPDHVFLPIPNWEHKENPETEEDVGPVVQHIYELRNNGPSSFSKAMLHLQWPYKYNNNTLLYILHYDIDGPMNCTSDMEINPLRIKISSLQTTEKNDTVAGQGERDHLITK
αvβ3 integrin, sequence (P06756 891-1048 partner limits assumed): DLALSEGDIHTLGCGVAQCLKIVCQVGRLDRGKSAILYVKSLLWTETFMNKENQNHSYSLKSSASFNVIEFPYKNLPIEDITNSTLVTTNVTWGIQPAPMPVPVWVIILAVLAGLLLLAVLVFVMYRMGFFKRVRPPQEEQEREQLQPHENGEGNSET
αvβ3 integrin, sequence (P05106 27-788): as the sequence (P05106 27-788) above
Method: Experiment 1: Assay for the Inhibition of αvβ3 integrin binding
This experiment was carried out based on the method described in […].
Purified human αvβ3 integrin (Chemicon International, Inc., USA) was adjusted to a concentration of 1 μg/ml with TBS^++ [20 mM Tris-HCl (pH 7.4), 150 mM NaCl, 1 mM CaCl2, 1 mM MgCl2], and the diluted solution was added to plates (Labsystems, Finland) at 50 μl/well. The plate was left at 4° C. overnight for immobilization of the αvβ3 integrin. All subsequent steps were done at 25° C., and the procedure for each well was described hereafter.
The solution was discarded, and then 200 μl of TBS^++ containing 1% BSA (Wako Pure Chemical Industries, Ltd., Japan) was added to the well and left for one hour for blocking. The well was washed with a wash solution (TBS^++ containing 0.01% Tween 20) 4 times, and 50 μl of a reaction solution (TBS^++ containing 0.1% BSA and 0.01% Tween 20) was added to the well. Subsequently, 25 μl of a test compound solution adjusted to each concentration with the reaction solution was added, and then mixed with 25 μl of biotinylated (Amersham Pharmacia Biotech, UK) human vitronectin (Gibco BRL, USA) adjusted to 0.4 μg/ml with the reaction solution. The mixture was reacted for 2 hours. After washing 4 times with the wash solution, 100 μl of peroxidase-labeled streptoavidin (Amersham Pharmacia Biotech, UK) diluted 1:500 with the reaction solution was added to the well. Following 30 minutes reaction, the well was washed 4 times with the wash solution, and 100 μl of a TMB substrate solution (Bio-Rad Laboratories, USA) was added to the well. Color was developed for 20 minutes and the reaction was stopped by adding 100 μl of 0.5 M sulfuric acid.
as §1, with “450” for “495”, “reader (Molecular Devices, USA)” for “reader”

| Structure (SMILES) | IC50 (αIIbβ3 integrin) | IC50 (αvβ3 integrin) |
| --- | --- | --- |
| O=C(N[C@@H](CCC(=O)N1CCN(c2cccc(NC3=NCC(F)CN3)c2)CC1)C(=O)O)OCc1ccccc1 (stereo partly drawn) [Ex. 124, (2S)-2-benzyloxycarbonylamino-5-[4-[3-(5-fluoro-1,4,5,6-tetrahydropyrimidin-2-yl)aminophenyl]piperazin-1-yl]-5-oxopentanoic acid] | 540 nM | 0.063 nM |
| O=C(N[C@@H](CCC(=O)N1CCN(c2cccc(NC3=NCC(O)CN3)c2)CC1)C(=O)O)OCc1ccccc1 (stereo partly drawn) [Ex. 125] | 340 nM | 0.15 nM |
| CCCCCCOC(=O)N[C@@H](CCC(=O)N1CCN(c2cccc(NC3=NCC(F)CN3)c2)CC1)C(=O)O (stereo partly drawn) [Ex. 130, (2S)-2-hexyloxycarbonylamino-5-[4-[3-(5-fluoro-1,4,5,6-tetrahydropyrimidin-2-yl)aminophenyl]piperazin-1-yl]-5-oxopentanoic acid] | > 1000 nM | 0.058 nM |
| CCCCCCOC(=O)N[C@@H](CCC(=O)N1CCN(c2cccc(NC3=NCC(O)CN3)c2)CC1)C(=O)O (stereo partly drawn) [Ex. 131] | 57 nM | 0.3 nM |
| CCCCCCCCCCOC(=O)N[C@@H](CCC(=O)N1CCN(c2cccc(NC3=NCC(F)CN3)c2)CC1)C(=O)O (stereo partly drawn) [Ex. 133] | > 1000 nM | 0.26 nM |
| CCCCCCCCCCOC(=O)N[C@@H](CCC(=O)N1CCN(c2cccc(NC3=NCC(C)CN3)c2)CC1)C(=O)O (stereo partly drawn) [Ex. 135] | > 1000 nM | 0.74 nM |
| CCCCCCOC(=O)N[C@@H](CCC(=O)N1CCN(c2cccc(NC3=NCCCN3)c2)CC1)C(=O)O [Ex. 137, (2S)-2-hexyloxycarbonylamino-5-[4-[3-(1,4,5,6-tetrahydropyrimidin-2-yl)aminophenyl]piperazin-1-yl]-5-oxopentanoic acid] | 880 nM | 0.28 nM |
| Cc1cc(C)c(S(=O)(=O)N[C@@H](CCC(=O)N2CCN(c3cccc(NC4=NCCCN4)c3)CC2)C(=O)O)c(C)c1 [Ex. 140] | 30 nM | 0.22 nM |
| O=C(N[C@@H](CNC(=O)N1CCN(c2cccc(NC3=NCCCN3)c2)CC1)C(=O)O)OCc1ccccc1 [Ex. 145, (2S)-2-benzyloxycarbonylamino-3-[[4-[3-(1,4,5,6-tetrahydropyrimidin-2-yl)aminophenyl]piperazin-1-yl]carbonylamino]-propanoic acid] | 380 nM | 0.041 nM |
| Cc1cc(N2CCC(C(=O)NC[C@H](NC(=O)OCc3ccccc3)C(=O)O)CC2)nc(NC2=NCCCN2)n1 [Ex. 150, (2S)-2-benzyloxycarbonylamino-3-[[1-[2-(1,4,5,6-tetrahydropyrimidin-2-yl)amino-6-methylpyrimidin-4-yl]piperidin-4-yl]-carbonylamino]propanoic acid] | 52 nM | 0.081 nM |
| Cc1ccc(N2CCC(C(=O)NC[C@H](NC(=O)OCc3ccccc3)C(=O)O)CC2)cc1NC1=NCCCN1 [Ex. 153, (2S)-2-benzyloxycarbonylamino-3-[[1-[4-methyl-3-(1,4,5,6-tetrahydropyrimidin-2-yl)aminophenyl]piperidin-4-yl]-carbonylamino]propanoic acid] | 94 nM | 0.14 nM |
| COc1ccc(NC2=NCCCN2)cc1N1CCN(C(=O)CC[C@H](NC(=O)OCc2ccccc2)C(=O)O)CC1 [Ex. 154, (2S)-2-benzyloxycarbonylamino-5-[4-[2-methoxy-5-(1,4,5,6-tetrahydropyrimidin-2-yl)aminophenyl]piperazin-1-yl]-5-oxopentanoic acid] | 530 nM | 0.096 nM |
| O=C(N[C@@H](CCC(=O)N1CCN(c2cc(F)cc(NC3=NCCCN3)c2)CC1)C(=O)O)OCc1ccccc1 [Ex. 158, (2S)-2-benzyloxycarbonylamino-5-[4-[5-fluoro-3-(1,4,5,6-tetrahydropyrimidin-2-yl)aminophenyl]piperazin-1-yl]-5-oxopentanoic acid] | 750 nM | 0.14 nM |
| O=C(N[C@@H](CNC(=O)C1CCN(c2cc(NC3=NCCCN3)ccn2)CC1)C(=O)O)OCc1ccccc1 [Ex. 159, (2S)-2-benzyloxycarbonylamino-3-[[1-[4-(1,4,5,6-tetrahydropyrimidin-2-yl)aminopyridin-2-yl]piperidin-4-yl]carbonylamino]-propanoic acid] | 86 nM | 0.06 nM |

Further lines, results first:

| IC50 (αIIbβ3 integrin) | IC50 (αvβ3 integrin) | Structure (SMILES) |
| --- | --- | --- |
| > 1000 nM | 1.7 nM | CCCCCCCCCCOC(=O)N[C@@H](CCC(=O)N1CCN(c2cccc(NC3=NCC(C)(C)CN3)c2)CC1)C(=O)O [Ex. 132] |
| > 1000 nM | 0.64 nM | CCCCCCCCCCOC(=O)N[C@@H](CCC(=O)N1CCN(c2cccc(NC3=NCC(O)CN3)c2)CC1)C(=O)O (stereo partly drawn) [Ex. 134] |
| 4200 nM | 1 nM | O=C(C[C@H](NC(=O)OCc1ccccc1)C(=O)O)NC1CCN(c2cccc(NC3=NCCCN3)c2)CC1 [Ex. 146, (2S)-2-benzyloxycarbonylamino-4-[[1-[3-(1,4,5,6-tetrahydropyrimidin-2-yl)aminophenyl]piperidin-4-yl]amino]-4-oxobutanoic acid] |
| 420 nM | 0.17 nM | O=C(N[C@@H](CCC(=O)N1CCC(c2cccc(NC3=NCCCN3)c2)CC1)C(=O)O)OCc1ccccc1 [Ex. 148, (2S)-2-benzyloxycarbonylamino-5-[4-[3-(1,4,5,6-tetrahydropyrimidin-2-yl)aminophenyl]piperidin-1-yl]-5-oxopentanoic acid] |
| 13 nM | 0.055 nM | COc1ccc(NC2=NCCCN2)cc1N1CCC(C(=O)NC[C@H](NC(=O)OCc2ccccc2)C(=O)O)CC1 [Ex. 152, (2S)-2-benzyloxycarbonylamino-3-[[1-[2-methoxy-5-(1,4,5,6-tetrahydropyrimidin-2-yl)aminophenyl]piperidin-4-yl]carbonylamino]propanoic acid] |
| 43 nM | 0.055 nM | O=C(N[C@@H](CNC(=O)C1CCN(c2cc(F)cc(NC3=NCCCN3)c2)CC1)C(=O)O)OCc1ccccc1 [Ex. 156, (2S)-2-benzyloxycarbonylamino-3-[[1-[5-fluoro-3-(1,4,5,6-tetrahydropyrimidin-2-yl)aminophenyl]piperidin-4-yl]carbonylamino]-propanoic acid] |
| 67 nM | 0.046 nM | O=C(N[C@@H](CNC(=O)C1CCN(c2cc(NC3=NCC(F)CN3)ccn2)CC1)C(=O)O)OCc1ccccc1 (stereo partly drawn) [Ex. 160, (2S)-2-benzyloxycarbonylamino-3-[[1-[4-(5-fluoro-1,4,5,6-tetrahydropyrimidin-2-yl)aminopyridin-2-yl]piperidin-4-yl]carbonylamino]-propanoic acid] |
